The experiment deals with MeAmi_SBP. The experiment is described as follows: isothermal analysis of ligand-titrated DSF. The format is binding, Mesorhizobium sp. The settings on record: 50 mM Tris, 300 mM NaCl, pH 7.4; 8.4 μM His6-tagged protein; one-site model.

As to `NC(=O)[C@@H](N)Cc1ccc(O)cc1` [L-tyrosinamide], the Kd turned out to be 187 nM. In the case of `C[C@H](N)C(N)=O` [L-alaninamide] it was 1530 nM; in that of `NCC(N)=O` [glycinamide], 49700 nM.

In general, Kd refers to the equilibrium constant for the complex coming apart.

The values above are taken from doi:10.1101/2024.02.22.581678v1 (biorxiv, 2024).
